This experiment relates to MV-4-11 cells. The experiment is described as follows: Gene expression microarray analysis (Affymetrix PrimeView) and GSEA. The format is cell-based, human. The arrangement: RFU PODN (11730768_x_at) / Fold change /veh PODN (11730768_x_at) / RFU LINC00158 (11744669_a_at) / Fold change /veh LINC00158 (11744669_a_at) / RFU DUSP10 (11751237_a_at) / Fold change /veh DUSP10 (11751237_a_at) / RFU ID3 (11757404_x_at) / Fold change /veh ID3 (11757404_x_at) / RFU PLEKHG5 (11737974_s_at) / Fold change /veh PLEKHG5 (11737974_s_at) / RFU LRRC4B (11730491_at) / Fold change /veh LRRC4B (11730491_at) / RFU GIMAP4 (11747438_a_at) / Fold change /veh GIMAP4 (11747438_a_at) / RFU KRT8 (11758183_x_at) / Fold change /veh KRT8 (11758183_x_at) / RFU CNN1 (11734310_a_at) / Fold change /veh CNN1 (11734310_a_at) / RFU VPS37D (11726825_at) / Fold change /veh VPS37D (11726825_at) / RFU C10orf10 (11716522_x_at) / Fold change /veh C10orf10 (11716522_x_at) / RFU KIR2DL2 /// KIR2DL4 /// KIR2DL5A /// KIR2DL5B /// KIR2DS1 /// KIR2DS2 /// KIR2DS3 /// KIR2DS4 /// KIR3DL3 /// KIR3DL3 /// KIR3DS1 (11738374_at) / Fold change /veh KIR2DL2 /// KIR2DL4 /// KIR2DL5A /// KIR2DL5B /// KIR2DS1 /// KIR2DS2 /// KIR2DS3 /// KIR2DS4 /// KIR3DL3 /// KIR3DL3 /// KIR3DS1 (11738374_at) / RFU C1QL1 (11718748_at) / Fold change /veh C1QL1 (11718748_at) / RFU TMPRSS4 (11747572_a_at) / Fold change /veh TMPRSS4 (11747572_a_at) / RFU HAMP (11756126_x_at) / Fold change /veh HAMP (11756126_x_at) / RFU RNFT2 (11725882_a_at) / Fold change /veh RNFT2 (11725882_a_at) / RFU NR4A2 (11747474_a_at) / Fold change /veh NR4A2 (11747474_a_at) / RFU ABCC12 (11746883_a_at) / Fold change /veh ABCC12 (11746883_a_at) / RFU TMEM136 (11760407_x_at) / Fold change /veh TMEM136 (11760407_x_at) / RFU CLDN22 /// WWC2 (11732394_at) / Fold change /veh CLDN22 /// WWC2 (11732394_at) / RFU HLA-DPB1 (11760878_x_at) / Fold change /veh HLA-DPB1 (11760878_x_at) / RFU SPINT1 (11716480_a_at) / Fold change /veh SPINT1 (11716480_a_at) / RFU GAP43 (11754022_s_at) / Fold change /veh GAP43 (11754022_s_at) / RFU A4GNT (11735810_at) / Fold change /veh A4GNT (11735810_at) / RFU PRB3 (11715151_x_at) / Fold change /veh PRB3 (11715151_x_at) / RFU TUBB4B (11761932_at) / Fold change /veh TUBB4B (11761932_at) / RFU CAPN14 (11732068_a_at) / Fold change /veh CAPN14 (11732068_a_at) / RFU TMCC2 (11721928_a_at) / Fold change /veh TMCC2 (11721928_a_at) / RFU IRGQ (11745062_a_at) / Fold change /veh IRGQ (11745062_a_at) / RFU FAM174B (11720279_a_at) / Fold change /veh FAM174B (11720279_a_at) / RFU TMPRSS4 (11748680_a_at) / Fold change /veh TMPRSS4 (11748680_a_at) / RFU FAM212B (11763350_a_at) / Fold change /veh FAM212B (11763350_a_at) / RFU PLEKHG5 (11743358_a_at) / Fold change /veh PLEKHG5 (11743358_a_at) / RFU ZSCAN30 (11745921_a_at) / Fold change /veh ZSCAN30 (11745921_a_at) / RFU CMKLR1 (11741424_a_at) / Fold change /veh CMKLR1 (11741424_a_at) / RFU LOC101060620 /// MAPK8IP1 (11723275_at) / Fold change /veh LOC101060620 /// MAPK8IP1 (11723275_at) / RFU SPTSSB (11747773_x_at) / Fold change /veh SPTSSB (11747773_x_at) / RFU PRSS12 (11739890_at) / Fold change /veh PRSS12 (11739890_at) / RFU BIN1 (11741810_x_at) / Fold change /veh BIN1 (11741810_x_at) / RFU WNT11 (11732464_a_at) / Fold change /veh WNT11 (11732464_a_at) / RFU C10orf10 (11716521_a_at) / Fold change /veh C10orf10 (11716521_a_at) / RFU C5orf56 (11738089_at) / Fold change /veh C5orf56 (11738089_at) / RFU CYB561 (11721691_x_at) / Fold change /veh CYB561 (11721691_x_at) / RFU ANKRD19P (11752326_a_at) / Fold change /veh ANKRD19P (11752326_a_at) / RFU OR2T12 /// OR2T33 /// OR2T8 (11738714_s_at) / Fold change /veh OR2T12 /// OR2T33 /// OR2T8 (11738714_s_at) / RFU VCAN (11748164_a_at) / Fold change /veh VCAN (11748164_a_at) / RFU JSRP1 (11732532_at) / Fold change /veh JSRP1 (11732532_at) / RFU KRTAP10-11 (11738290_x_at) / Fold change /veh KRTAP10-11 (11738290_x_at) / RFU MYO3A (11730013_a_at) / Fold change /veh MYO3A (11730013_a_at) / RFU EBF3 (11725865_a_at) / Fold change /veh EBF3 (11725865_a_at) / RFU CAMK2N1 (11719241_x_at) / Fold change /veh CAMK2N1 (11719241_x_at) / RFU C5orf56 (11738088_a_at) / Fold change /veh C5orf56 (11738088_a_at) / RFU OLFML3 (11715873_a_at) / Fold change /veh OLFML3 (11715873_a_at) / RFU LOC100653217 /// NTM (11731650_a_at) / Fold change /veh LOC100653217 /// NTM (11731650_a_at) / RFU MAPK11 (11762145_a_at) / Fold change /veh MAPK11 (11762145_a_at) / RFU FIZ1 (11724087_x_at) / Fold change /veh FIZ1 (11724087_x_at) / RFU OASL (11726364_x_at) / Fold change /veh OASL (11726364_x_at) / RFU SOX15 (11748057_x_at) / Fold change /veh SOX15 (11748057_x_at) / RFU CD79A (11719716_a_at) / Fold change /veh CD79A (11719716_a_at) / RFU HIST1H1D (11736915_at) / Fold change /veh HIST1H1D (11736915_at) / RFU CASKIN2 (11723855_a_at) / Fold change /veh CASKIN2 (11723855_a_at) / RFU LOC730098 (11760151_x_at) / Fold change /veh LOC730098 (11760151_x_at) / RFU OR4N2 (11742367_at) / Fold change /veh OR4N2 (11742367_at) / RFU PRRT2 (11749266_a_at) / Fold change /veh PRRT2 (11749266_a_at) / RFU SNX32 (11753110_a_at) / Fold change /veh SNX32 (11753110_a_at) / RFU CDHR5 (11726645_a_at) / Fold change /veh CDHR5 (11726645_a_at) / RFU RCAN1 (11760418_a_at) / Fold change /veh RCAN1 (11760418_a_at) / RFU FAM167A (11723789_a_at) / Fold change /veh FAM167A (11723789_a_at) / RFU FAM26E (11764081_at) / Fold change /veh FAM26E (11764081_at) / RFU ISYNA1 (11749810_s_at) / Fold change /veh ISYNA1 (11749810_s_at) / RFU ACY1 (11761880_at) / Fold change /veh ACY1 (11761880_at) / RFU 11764098_at / Fold change /veh 11764098_at / RFU SAMD14 (11745864_x_at) / Fold change /veh SAMD14 (11745864_x_at) / RFU NPB (11741838_a_at) / Fold change /veh NPB (11741838_a_at) / RFU TMPRSS6 (11731388_a_at) / Fold change /veh TMPRSS6 (11731388_a_at) / RFU KRTAP10-2 (11738614_at) / Fold change /veh KRTAP10-2 (11738614_at) / RFU ARHGAP8 /// PRR5-ARHGAP8 (11727945_x_at) / Fold change /veh ARHGAP8 /// PRR5-ARHGAP8 (11727945_x_at) / RFU KRTAP5-7 /// NADSYN1 (11734609_at) / Fold change /veh KRTAP5-7 /// NADSYN1 (11734609_at) / RFU RASL12 (11751679_a_at) / Fold change /veh RASL12 (11751679_a_at) / RFU CDKN2B (11736163_a_at) / Fold change /veh CDKN2B (11736163_a_at) / RFU PRF1 (11729649_at) / Fold change /veh PRF1 (11729649_at) / RFU, ZNF638 /// ZNF638-IT1 / Fold change vs veh, ZNF638 /// ZNF638-IT1 / RFU, PANK3 / Fold change vs veh, PANK3 / RFU, SH3YL1 / Fold change vs veh, SH3YL1 / RFU, ZEB2 / Fold change vs veh, ZEB2 / RFU, NRIP1 / Fold change vs veh, NRIP1 / RFU, PTTG1IP / Fold change vs veh, PTTG1IP / RFU, CAPN2 / Fold change vs veh, CAPN2 / RFU, MED14 / Fold change vs veh, MED14 / RFU, SNORA58 / Fold change vs veh, SNORA58 / RFU, C1orf63 / Fold change vs veh, C1orf63 / RFU, LRRFIP1 / Fold change vs veh, LRRFIP1 / RFU, NDUFAF7 / Fold change vs veh, NDUFAF7 / RFU, SLC12A2 / Fold change vs veh, SLC12A2 / RFU, IBTK / Fold change vs veh, IBTK / RFU, ESF1 / Fold change vs veh, ESF1 / Fold change vs veh, TMEM50B / RFU, TAOK1 / Fold change vs veh, TAOK1 / RFU, ACBD3 / Fold change vs veh, ACBD3 / RFU, TMA16 / Fold change vs veh, TMA16 / RFU, RWDD3 / Fold change vs veh, RWDD3 / RFU, BCAT1 / Fold change vs veh, BCAT1 / RFU, EDEM3 / Fold change vs veh, EDEM3 / RFU, TMEM33 / Fold change vs veh, TMEM33 / RFU, WDR75 / Fold change vs veh, WDR75 / RFU, AHCTF1 / Fold change vs veh, AHCTF1 / RFU, TFRC / Fold change vs veh, TFRC / RFU, ZDHHC17 / Fold change vs veh, ZDHHC17 / RFU, NOM1 / Fold change vs veh, NOM1 / RFU, ARL8B / Fold change vs veh, ARL8B / RFU, ZBTB11 / Fold change vs veh, ZBTB11 / RFU, TAMM41 / Fold change vs veh, TAMM41 / RFU, KIAA1704 /// LOC100996395 / Fold change vs veh, KIAA1704 /// LOC100996395 / RFU, ING1 / Fold change vs veh, ING1 / RFU, TRMT61B / Fold change vs veh, TRMT61B / RFU, FUBP3 / Fold change vs veh, FUBP3 / RFU, TP53 / Fold change vs veh, TP53 / RFU, TNKS2 / Fold change vs veh, TNKS2 / RFU, ZFP14 / Fold change vs veh, ZFP14 / RFU, ACTR2 / Fold change vs veh, ACTR2 / RFU, PPP3R1 / Fold change vs veh, PPP3R1 / RFU, PIK3R1 / Fold change vs veh, PIK3R1 / RFU, HNRNPA1 / Fold change vs veh, HNRNPA1 / RFU, RNF170 / Fold change vs veh, RNF170 / RFU, ZNF28 / Fold change vs veh, ZNF28 / RFU, RNGTT / Fold change vs veh, RNGTT / RFU, OGT / Fold change vs veh, OGT / RFU, BRD1 / Fold change vs veh, BRD1 / RFU, MARS / Fold change vs veh, MARS / RFU, ZNF655 / Fold change vs veh, ZNF655 / RFU, FAHD1 / Fold change vs veh, FAHD1 / RFU, BDP1 / Fold change vs veh, BDP1 / RFU, LRRCC1 / Fold change vs veh, LRRCC1 / RFU, ARID1A / Fold change vs veh, ARID1A / RFU, ZNF146 / Fold change vs veh, ZNF146 / RFU, ZNF330 / Fold change vs veh, ZNF330 / RFU, GPN3 / Fold change vs veh, GPN3 / RFU, C9orf123 / Fold change vs veh, C9orf123 / RFU, N4BP2L2 / Fold change vs veh, N4BP2L2 / RFU, ARFIP1 / Fold change vs veh, ARFIP1 / RFU, FAM179B / Fold change vs veh, FAM179B / RFU, BCL10 / Fold change vs veh, BCL10 / RFU, UHRF1BP1L / Fold change vs veh, UHRF1BP1L / RFU, BET1 / Fold change vs veh, BET1 / RFU, CNOT2 / Fold change vs veh, CNOT2 / RFU, ZNF268 / Fold change vs veh, ZNF268 / Fold change vs veh, ZNF507 / RFU, DGCR2 / Fold change vs veh, DGCR2 / RFU, WDSUB1 / Fold change vs veh, WDSUB1 / Fold change vs veh, HSP90B1 /// MIR3652 / RFU, ADSS / Fold change vs veh, ADSS / RFU, GK / Fold change vs veh, GK / RFU, ZNF148 / Fold change vs veh, ZNF148 / RFU, TAF9 / Fold change vs veh, TAF9 / RFU, SLC1A5 / Fold change vs veh, SLC1A5 / RFU, SLMO2 / Fold change vs veh, SLMO2 / RFU, ABCC4 / Fold change vs veh, ABCC4 / RFU, LOC101060439 /// RAP1B / Fold change vs veh, LOC101060439 /// RAP1B / RFU, RFX7 / Fold change vs veh, RFX7 / RFU, GTPBP10 / Fold change vs veh, GTPBP10 / RFU, CNEP1R1 / Fold change vs veh, CNEP1R1 / RFU, BIVM-ERCC5 /// ERCC5 / Fold change vs veh, BIVM-ERCC5 /// ERCC5 / RFU, ILF3 / Fold change vs veh, ILF3 / RFU 11762660_at / Fold change /veh 11762660_at / RFU VCAN (11757783_s_at) / Fold change /veh VCAN (11757783_s_at) / RFU DDX43 (11728927_at) / Fold change /veh DDX43 (11728927_at) / RFU KRT8 (11758188_x_at) / Fold change /veh KRT8 (11758188_x_at) / RFU NKD1 (11759106_at) / Fold change /veh NKD1 (11759106_at) / RFU SRD5A1 (11742802_a_at) / Fold change /veh SRD5A1 (11742802_a_at) / RFU TPSAB1 /// TPSB2 (11721975_s_at) / Fold change /veh TPSAB1 /// TPSB2 (11721975_s_at) / RFU GSTM3 (11746129_a_at) / Fold change /veh GSTM3 (11746129_a_at) / RFU IL23R (11737362_x_at) / Fold change /veh IL23R (11737362_x_at) / RFU TMEM51 (11727254_a_at) / Fold change /veh TMEM51 (11727254_a_at) / RFU PIWIL2 (11732686_x_at) / Fold change /veh PIWIL2 (11732686_x_at) / RFU ORM1 (11744905_x_at) / Fold change /veh ORM1 (11744905_x_at) / RFU CCDC152 (11743942_at) / Fold change /veh CCDC152 (11743942_at) / RFU ECM1 (11717891_a_at) / Fold change /veh ECM1 (11717891_a_at) / RFU IL23R (11748794_a_at) / Fold change /veh IL23R (11748794_a_at) / RFU TNFAIP8L3 (11732012_x_at) / Fold change /veh TNFAIP8L3 (11732012_x_at) / RFU MBOAT4 (11741988_at) / Fold change /veh MBOAT4 (11741988_at) / RFU 11764193_at / Fold change /veh 11764193_at / RFU TMEM53 (11763286_at) / Fold change /veh TMEM53 (11763286_at) / RFU MAGEB2 (11727129_at) / Fold change /veh MAGEB2 (11727129_at) / RFU TMEM200A (11744735_a_at) / Fold change /veh TMEM200A (11744735_a_at) / RFU CCDC152 (11751479_a_at) / Fold change /veh CCDC152 (11751479_a_at) / RFU FAM211A (11726209_a_at) / Fold change /veh FAM211A (11726209_a_at) / RFU RGS16 (11746705_a_at) / Fold change /veh RGS16 (11746705_a_at) / RFU VCAN (11755009_s_at) / Fold change /veh VCAN (11755009_s_at) / RFU RHOB (11743442_s_at) / Fold change /veh RHOB (11743442_s_at) / RFU RGS16 (11720943_a_at) / Fold change /veh RGS16 (11720943_a_at) / RFU RGS16 (11720944_at) / Fold change /veh RGS16 (11720944_at) / RFU, VPS4B / Fold change vs veh, VPS4B / RFU, CREB1 / Fold change vs veh, CREB1 / RFU, DNAJC13 / Fold change vs veh, DNAJC13 / RFU, GNAQ / Fold change vs veh, GNAQ / RFU, CDK5R1 / Fold change vs veh, CDK5R1 / RFU, ZRANB3 / Fold change vs veh, ZRANB3 / RFU, CUL4A / Fold change vs veh, CUL4A / RFU, CCNY / Fold change vs veh, CCNY / RFU, UFL1 / Fold change vs veh, UFL1 / RFU, COG3 / Fold change vs veh, COG3 / RFU, DIAPH2 / Fold change vs veh, DIAPH2 / RFU, SKA2 / Fold change vs veh, SKA2 / RFU, AFF3 / Fold change vs veh, AFF3 / RFU, LMF1 / Fold change vs veh, LMF1 / RFU, IPO11 / Fold change vs veh, IPO11 / RFU, DFFB / Fold change vs veh, DFFB / RFU, FOXP1 / Fold change vs veh, FOXP1 / RFU, CARD8 / Fold change vs veh, CARD8 / RFU, STRN3 / Fold change vs veh, STRN3 / RFU, ADK / Fold change vs veh, ADK / RFU, RASSF2 / Fold change vs veh, RASSF2 / RFU, WIPF1 / Fold change vs veh, WIPF1 / RFU, LARP1B / Fold change vs veh, LARP1B / RFU, RASA1 / Fold change vs veh, RASA1 / RFU, RB1 / Fold change vs veh, RB1 / RFU, PPFIA1 / Fold change vs veh, PPFIA1 / RFU, MAT2A / Fold change vs veh, MAT2A / RFU, CCT5 / Fold change vs veh, CCT5 / RFU, WDR92 / Fold change vs veh, WDR92 / RFU, CUX1 / Fold change vs veh, CUX1 / RFU, TTC7A / Fold change vs veh, TTC7A / RFU, TMEM135 / Fold change vs veh, TMEM135 / RFU, DEPTOR / Fold change vs veh, DEPTOR / RFU, CPM / Fold change vs veh, CPM / RFU, DNAJB6 / Fold change vs veh, DNAJB6 / RFU, CACNA2D3 / Fold change vs veh, CACNA2D3 / RFU, DTX4 / Fold change vs veh, DTX4 / RFU, TFCP2 / Fold change vs veh, TFCP2 / RFU, GMCL1 /// GMCL1P1 / Fold change vs veh, GMCL1 /// GMCL1P1 / RFU, AEBP2 / Fold change vs veh, AEBP2 / RFU, SNHG1 /// SNORD22 /// SNORD25 /// SNORD26 /// SNORD27 /// SNORD28 /// SNORD29 /// SNORD31 / Fold change vs veh, SNHG1 /// SNORD22 /// SNORD25 /// SNORD26 /// SNORD27 /// SNORD28 /// SNORD29 /// SNORD31 / Fold change (Aza/veh), C12orf56 (ProbeSet 11735607_a_at) / Fold change (ACY-1035/veh), C12orf56 (ProbeSet 11735607_a_at) / Fold change (Aza/veh), FGFR1OP (ProbeSet 11751329_s_at) / Fold change (ACY-1035/veh), FGFR1OP (ProbeSet 11751329_s_at) / Fold change (Aza/veh), VPS36 (ProbeSet 11739960_a_at) / Fold change (ACY-1035/veh), VPS36 (ProbeSet 11739960_a_at) / RFU SYPL1 (11715823_x_at) / Fold change /veh SYPL1 (11715823_x_at) / RFU IGFBP7 (11715501_s_at) / Fold change /veh IGFBP7 (11715501_s_at) / RFU REEP3 (11722064_at) / Fold change /veh REEP3 (11722064_at) / RFU IGLL1 (11728026_x_at) / Fold change /veh IGLL1 (11728026_x_at): dose or concentration left out as unconfirmed. The following applies: ProbeSet 11749477_a_at; LIST B.

In the case of `Nc1ccc(-c2cccs2)cc1NC(=O)c1ccc2c(c1)cc(C1CC1)n2CCN1CCOCC1` [ACY-1035], the “RFU, EDEM3” value was found to be 51.94 RFU.

Source of the values: article PMC5218480 (PLoS ONE, 2017).
